Data set [1] deals with decapping activity in HeLa S100 cytoplasmic extract. As to the kind of experiment: In vitro decapping assay (release of 7meGDP from cap-labeled RNA, TLC). The data set is classed as biochemical, human. The conditions noted are these: for effect of competitor RNA on decapping of AU-rich element-containing RNA substrate: FIG. 6; for activation of decapping in human cytoplasmic extract: cold cap analog added to standard S100 extract. As for the experimental part: In one embodiment of a manual procedure, the components are as follows (referred to herein as “standard reaction conditions”): • 1 microliter ^7meGpppG or ^7meGTP competitor (50-500 ng/microliter); • 1 microliter RNA (˜5-200 fmol; labeled at the alpha phosphate of the cap); • 4 microliters S100 extract; and • 4 microliters water.
The mixture is incubated at 30° C. for 30 min; aliquots are then taken at designated time points to follow the kinetics of decapping by visualization of the product of decapping, ^7meGDP, by, for example, thin layer chromatography on a cellulose PEI sheet using a mobile phase of 0.45 M ammonium sulfate. Other means for identifying the decapping product are fully embraced herein.
Decapping assays were performed using conditions adapted from Zhang et al (1999b). 10-50 fmoles of cap-labeled RNAs were incubated with 4 microliters HeLa S100 cytoplasmic extract in a 10 microliter reaction in the presence of CE buffer (50 mM Tris pH 7.9, 30 mM (NH4)2SO4, 1 mM MgCl2) and 20 micromolar cap analog (where indicated). Reaction mixtures were incubated at 30° C. for the times indicated and stopped by the addition of 1 microliter of 0.25 M EDTA. Reaction products were separated and identified by thin layer chromatography on PEI cellulose sheets developed in 450 mM (NH4)2SO4. Quantitation was performed using a Molecular Dynamics Phosphorimager. Twenty micrograms of ^7meGMP and ^7meGDP were routinely spotted on TLC plates along with reaction samples to serve as markers that could be visualized by UV shadowing.

A further data set concerns the target T1, deadenylase DAN/PARN (Homo sapiens, UniProt O95453).
T1 construct: incubated HeLa S100 extracts using cap-labeled GemARE-A60 RNA under decapping conditions; endogenous in cells; host or cells: HeLa spinner cells, S100 cytoplasmic extract
T1 sequence (O95453 1-639): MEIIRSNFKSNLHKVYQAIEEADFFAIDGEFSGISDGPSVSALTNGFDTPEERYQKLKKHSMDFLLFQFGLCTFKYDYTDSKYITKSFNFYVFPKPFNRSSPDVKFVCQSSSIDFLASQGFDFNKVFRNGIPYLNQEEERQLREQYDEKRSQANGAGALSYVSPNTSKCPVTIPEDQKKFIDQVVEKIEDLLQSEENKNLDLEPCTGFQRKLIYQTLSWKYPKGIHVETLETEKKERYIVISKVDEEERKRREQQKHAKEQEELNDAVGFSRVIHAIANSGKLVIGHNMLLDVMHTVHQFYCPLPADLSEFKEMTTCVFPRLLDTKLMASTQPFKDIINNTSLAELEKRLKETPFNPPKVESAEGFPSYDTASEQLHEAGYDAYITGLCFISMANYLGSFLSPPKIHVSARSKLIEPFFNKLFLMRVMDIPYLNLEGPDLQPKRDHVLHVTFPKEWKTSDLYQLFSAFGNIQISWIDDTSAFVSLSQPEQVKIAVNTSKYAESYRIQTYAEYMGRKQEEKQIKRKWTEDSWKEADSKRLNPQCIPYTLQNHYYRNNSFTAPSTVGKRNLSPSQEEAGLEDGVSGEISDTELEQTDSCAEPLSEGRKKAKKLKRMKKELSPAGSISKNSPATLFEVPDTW
Nature of the data set: UV cross-linking / immunoprecipitation of DAN/PARN. The data set is classed as binding. As for the experimental part:
(§1) UV cross-linking analysis was performed as described (Wilusz and Shenk, 1988). Briefly, 20-50 fmoles of cap-radiolabeled RNA was incubated in the in vitro decapping assay for 5 min. and then reaction mixtures were irradiated on ice for 10 min. using a 15W germicidal light. RNases A and T1 were added and proteins covalently attached to short radioactive RNA oligomers were analyzed on a 10% acrylamide gel containing SDS. For analysis of UV cross-linked DAN/PARN protein by immunoprecipitation using a polyclonal antibody obtained from M. Wormington (Korner et al., 1998), 400 ul of NET2 buffer (50 mM Tris pH 7.6, 150 mM NaCl, 0.01% NP40) was added to reaction mixtures following RNase treatment and reaction mixtures were centrifuged for 4 min. Pre-cleared samples were incubated on ice with 2-5 microliters of specified rabbit polyclonal antisera for 1 hr. Antigen antibody complexes were collected on protein A-positive Staphylococcus aureus cells, washed five times in RIPA buffer (50 mM Tris, pH 7.6, 150 mM NaCl, 0.1% SDS, 1% NP40, 0.5% deoxycholate), and immunoprecipitated cross-linked proteins were analyzed on a 10 or 15% acrylamide gel containing SDS.

Data set [2] has as its target T2, 24 kDa cap binding protein (eIF4E) (Homo sapiens, UniProt P06730).
T2 construct: endogenous in cells; host or cells: HeLa spinner cells, S100 cytoplasmic extract
Nature of the data set: UV cross-linking of cap-labeled RNA to cap-binding proteins. The method, then: as §1

The subject of data set [3] is unidentified 40 kDa species (ARE-specific RNA binding protein). As to the kind of experiment: UV cross-linking of ARE-binding proteins with ARE competitor RNA. Also noted: species or system human. The note with it: S100 extract. As for the experimental part: as §1
For a further data set, the target named is T3, HuR (Homo sapiens, UniProt Q15717).
T3 construct: endogenous in cells; host or cells: HeLa spinner cells, S100 cytoplasmic extract
T3 sequence (Q15717 whole entry): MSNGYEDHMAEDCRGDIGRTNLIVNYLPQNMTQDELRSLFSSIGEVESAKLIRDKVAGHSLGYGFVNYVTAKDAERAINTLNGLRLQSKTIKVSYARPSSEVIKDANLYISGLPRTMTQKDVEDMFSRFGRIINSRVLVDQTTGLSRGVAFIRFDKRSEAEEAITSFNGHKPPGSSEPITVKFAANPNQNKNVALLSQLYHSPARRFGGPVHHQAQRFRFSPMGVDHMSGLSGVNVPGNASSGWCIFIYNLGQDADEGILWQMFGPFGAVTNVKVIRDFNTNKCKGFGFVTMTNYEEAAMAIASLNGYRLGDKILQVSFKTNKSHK
The description is as above. The conditions noted are these: S100 extract. As for the experimental part: as §1

Where [4] appears, read: titration, GemARE-A0 RNA, FIG. 2D.
Setting [5] is: 5 micromolar cap analog, FIG. 2D.

T2 sequence (P06730 whole entry): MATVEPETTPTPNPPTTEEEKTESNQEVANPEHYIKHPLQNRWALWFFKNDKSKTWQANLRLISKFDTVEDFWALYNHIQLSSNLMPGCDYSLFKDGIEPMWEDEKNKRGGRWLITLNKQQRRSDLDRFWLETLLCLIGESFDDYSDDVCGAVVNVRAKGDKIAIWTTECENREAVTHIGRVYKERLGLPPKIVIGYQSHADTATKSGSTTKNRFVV

With “5′-GGAUUAACUAAUUGAUACCGCGUAUACACGCGG (RNA, backbone not given here) [control competitor RNA]”, the “effect of competitor RNA on decapping of AU-rich element-containing RNA substrate” value in data set [1] (with cap analog) is “no effect on decapping efficiency”.
For `Cn1c[n+]([C@@H]2O[C@H](COP(=O)(O)OP(=O)(O)OP(=O)(O)OC[C@H]3O[C@@H](n4cnc5c(=O)[nH]c(N)nc54)[C@H](O)[C@@H]3O)[C@@H](O)[C@H]2O)c2nc(N)[nH]c(=O)c21` [^7meGpppG], the “activation of decapping of RNA substrates (accumulation of 7meGDP)” value in data set [1] (20 micromolar, 3 independently prepared HeLa cytoplasmic extracts, FIG. 1B) is given as “activated decapping”. Also, the “activation of decapping in human cytoplasmic extract” value in data set [1] is on record as “activates the human cytoplasmic extract”. In data set [1] (setting [4]), the “amount of cap analog giving only partial activation of decapping” value is reported as 5 micromolar and the “amount of cap analog required for full activation of decapping” value is on record as 10 micromolar. In addition, the “full sequestration of DAN/PARN” value at deadenylase DAN/PARN (setting [5]) was “not”. In addition, the “competition for cap binding by DAN/PARN” value on deadenylase DAN/PARN (FIG. 2C) was “specifically competed”. Also, the “amount required to fully sequester DAN/PARN” value at deadenylase DAN/PARN (FIG. 2D) turned out to be 10 µM. Besides, the “sequestration of 24 kDa cap binding protein” value in data set [2] (setting [5]) was “fully sequestered”. Also, in data set [2] (increasing amounts, HeLa S100, FIG. 2B), the “competition for cross-linking of 24 kDa protein to cap” value is listed as “specifically competed”.
Consider “5′AUUAUUUAUUAUUUAUUUAUUAUUUAUUUAUUUA (RNA, backbone not given here) [ARE competitor RNA]”, for which the “substrate dependence of the reduction in decapping efficiency” value in data set [1] (Gem-A0 versus GemARE-A0, FIG. 6B) is reported as “only observed with RNA substrates that contained an AU-rich element”. For the same compound, the “effect of competitor RNA on decapping of AU-rich element-containing RNA substrate” value in data set [1] (with cap analog) is on record as “significantly reduced decapping”. The “competition of 40 kDa species cross-linking” value in data set [3] was “competed”. For the same compound, the “competition of HuR cross-linking” value in the data set with HuR is “competed”.
With `Cn1c[n+]([C@@H]2O[C@H](COP(=O)([O-])OP(=O)(O)OP(=O)(O)O)[C@@H](O)[C@H]2O)c2nc(N)[nH]c(=O)c21` [^7meGTP], the “activation of decapping in human cytoplasmic extract” value in data set [1] is “activates the human cytoplasmic extract”.
As for poly(C), the “effect of other homopolymer on decapping” value in data set [1] (all RNA substrates tested, with cap analog, FIG. 4B) is recorded as “did not appreciably affect decapping”.
With `Nc1nc2c(ncn2[C@@H]2O[C@H](COP(=O)(O)OP(=O)(O)OP(=O)(O)OC[C@H]3O[C@@H](n4cnc5c(=O)[nH]c(N)nc54)[C@H](O)[C@@H]3O)[C@@H](O)[C@H]2O)c(=O)[nH]1` [GpppG], the “ability of methylated versus non-methylated cap analogs to activate decapping” value in data set [1] (HeLa S100, cap-labeled GemARE-A60 RNA, FIG. 2A) is “the presence of the methyl group on the cap analog was absolutely required to activate decapping”.

For the origin of these results see patent US6852531B2, “Compositions and methods for reproducing and modulating mammalian messenger RNA decapping” (University of Medicine & Dentistry of NJ, priority 2000, dated 2005).
